Measured values as given in patent US20180057505A1, “BICYCLIC HETEROARYL COMPOUNDS USEFUL AS INHIBITORS OF THE PAR-2 SIGNALING PATHWAY” (VERTEX PHARMACEUTICALS INCORPORATED, priority 2015, published 2018).

Legend:
Assay type in all cases: cell-based
PAR2 (HT-29 cells) [1] = molecular target: T1, PAR2 (HT-29 cells) (Homo sapiens, UniProt P55085); experiment: Ca FLIPR TETRA assay, ANTAGONIST mode, activator 8 μM SLIGKV; settings: HT-29 cells, activator 8 μM SLIGKV; maximal antagonist concentration per Method (A: 0.1, 1 or 2 μM; B: 50 μM)
T1 construct: host or cells: HT-29
T1 sequence (P55085 26-397): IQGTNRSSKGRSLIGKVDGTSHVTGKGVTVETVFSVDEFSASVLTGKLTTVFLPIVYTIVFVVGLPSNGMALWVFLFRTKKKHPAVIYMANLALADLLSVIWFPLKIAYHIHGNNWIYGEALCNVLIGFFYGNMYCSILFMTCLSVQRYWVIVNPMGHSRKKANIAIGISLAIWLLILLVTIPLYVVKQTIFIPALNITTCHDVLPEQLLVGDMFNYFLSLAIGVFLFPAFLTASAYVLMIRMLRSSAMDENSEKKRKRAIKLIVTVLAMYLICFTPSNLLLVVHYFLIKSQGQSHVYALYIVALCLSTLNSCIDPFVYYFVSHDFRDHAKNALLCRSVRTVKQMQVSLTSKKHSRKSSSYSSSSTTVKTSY
Method in brief: (§1)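 Inhibition of agonist-evoked calcium signals was measured in human HT-29 colon cells cultured overnight in 1% FBS McCoy's medium. Test compounds preincubated 30 min at r.t.; activators at final concentrations as stated for each readout.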

[2] = test system: Thrombin-stimulated Ca2+ response in HT-29 cells; experiment: Ca FLIPR TETRA assay, ANTAGONIST mode, activator 1 U/mL Thrombin; settings: HT-29 cells, activator 1 U/mL Thrombin
Method in brief: as §1

PAR2 (HT-29 cells) [3] = molecular target: T1, PAR2 (HT-29 cells); experiment: Ca FLIPR TETRA assay, ANTAGONIST mode, activator 3.1 U/mL trypsin; settings: HT-29 cells, activator 3.1 U/mL trypsin; maximal antagonist concentration per Method (A: 0.1, 1 or 2 μM; B: 50 μM)
Method in brief: as §1

[4] = test system: UTP-stimulated Ca2+ response in HT-29 cells; experiment: Ca FLIPR TETRA assay, ANTAGONIST mode, activator 0.6 μM UTP; settings: HT-29 cells, activator 0.6 μM UTP
Method in brief: as §1

IC50 (PAR2 (HT-29 cells) [1])	IC50 ([2]; Homo sapiens)	IC50 (PAR2 (HT-29 cells) [3])	IC50 ([4]; Homo sapiens)	IC50 [2]	IC50 [4]	SMILES
0.6 nM	> 1000 nM	1 nM	> 1000 nM	–	–	CC1(C)CN(C(=O)C2CC(O)(C(F)(F)F)C2)CCN1C(=O)c1cc2nc(-c3ccc(F)cc3)cc(C3(C#N)CC(F)(F)C3)c2o1 (stereo not drawn) [Example I-205]
4 nM	> 1000 nM	4 nM	> 1000 nM	–	–	CN1CCN(C(=O)c2cc3nc(-c4ccc(F)cc4)cc(C(C)(C)C)c3o2)C(C)(C)C1=O [Example I-206]
220 nM	> 1000 nM	370 nM	> 1000 nM	–	–	CC(C)(C)c1cc(-c2ccc(F)cc2)nc2cc(C(=O)N3CCN(CC(=O)O)C(=O)C3(C)C)oc12 [Example I-209]
2 nM	> 1500 nM	3 nM	> 1500 nM	–	–	COCCN1CCN(C(=O)c2cc3nc(-c4ccc(F)cc4)cc(C(C)(C)C)c3o2)C(C)(C)C1=O [Example I-210]
7 nM	> 2000 nM	17 nM	> 2000 nM	–	–	CC1(C)C(=O)NCCN1C(=O)c1cc2nc(-c3ccc(F)cc3)cc(C3CCCCC3)c2o1 [Example I-211]
13 nM	> 2000 nM	43 nM	> 2000 nM	–	–	CC1(C)C(=O)NCCN1C(=O)c1cc2nc(-c3ccc(F)cc3)cc(C3CCC(F)(F)CC3)c2o1 [Example I-212]
8 nM	> 2000 nM	53 nM	> 2000 nM	–	–	CC(C)(C)c1cc(-c2ccc(F)cc2)nc2cc(C(=O)N3CCN(C(=O)CCS(C)(=O)=O)CC3(C)C)oc12 [Example I-213]
27 nM	> 1000 nM	26 nM	> 1000 nM	–	–	CC(C)(C)c1cc(C2CCCCCC2)nc2cc(C(=O)N3CCNC(=O)C3(C)C)oc12 [Example I-214]
96 nM	> 1000 nM	300 nM	> 1000 nM	–	–	CC(C)(C)c1cc(C2CCCC2)nc2cc(C(=O)N3CCNC(=O)C3(C)C)oc12 [Example I-215]
68 nM	> 1000 nM	240 nM	> 1000 nM	–	–	CC(C)(C)c1cc(C2CCC(F)(F)CC2)nc2cc(C(=O)N3CCNC(=O)C3(C)C)oc12 [Example I-216]
13 nM	> 2000 nM	22 nM	> 2000 nM	–	–	CC1(C)CCC(c2cc(C(C)(C)C)c3oc(C(=O)N4CCNC(=O)C4(C)C)cc3n2)CC1 [Example I-217, 4-[7-tert-butyl-5-(4,4-dimethylcyclohexyl)furo[3,2-b]pyridine-2-carbonyl]-3,3-dimethyl-piperazin-2-one]
36 nM	> 2000 nM	44 nM	> 2000 nM	–	–	CC(C)(C)c1cc(C2CCC(Cl)(Cl)CC2)nc2cc(C(=O)N3CCNC(=O)C3(C)C)oc12 [Example I-218]
39 nM	–	50 nM	–	> 2000 nM	> 2000 nM	CNS(=O)(=O)CC(=O)N1CCN(C(=O)c2cc3nc(C4CCC(F)(F)CC4)cc(C(C)(C)C)c3o2)C(C)(C)C1=O [Example I-219]
6.7 nM	–	13 nM	–	> 2000 nM	> 2000 nM	CC(C)(C)c1cc(C2CCC(F)(F)CC2)nc2cc(C(=O)N3CCN(C(=O)[C@H]4CC[C@@](C)(C(=O)O)CC4)C(=O)C3(C)C)oc12 [Example I-220]
32 nM	–	58 nM	–	> 2000 nM	> 2000 nM	Cc1nc(C(=O)N2CCN(C(=O)c3cc4nc(C5CCC(F)(F)CC5)cc(C(C)(C)C)c4o3)C(C)(C)C2=O)n[nH]1 [Example I-221]
275 nM	–	730 nM	–	> 2000 nM	> 2000 nM	CC(C)(C)c1cc(C2CCC(F)(F)CC2)nc2cc(C(=O)N3CCN(C(=O)CNS(C)(=O)=O)C(=O)C3(C)C)oc12 [Example I-222]
13.8 nM	–	39 nM	–	> 2000 nM	> 2000 nM	Cc1cc(C(=O)N2CCN(C(=O)c3cc4nc(C5CCC(F)(F)CC5)cc(C(C)(C)C)c4o3)C(C)(C)C2=O)[nH]n1 [Example I-223]
2.3 nM	–	3.3 nM	–	> 2000 nM	> 2000 nM	CC(C)(C)c1cc(C2CCC(F)(F)CC2)nc2cc(C(=O)N3CCN(C(=O)C4CC(O)(C(F)(F)F)C4)C(=O)C3(C)C)oc12 (stereo not drawn) [Example I-224]
